Key:
Type in all cases: biochemical
TYK2 = molecular target: T1, TYK2 (Homo sapiens, UniProt P29597); experiment: TYK2 kinase assay (HTRF, inhibition of phosphorylation of a synthetic peptide); details: catalytic domain aa 871-1187, GST-tag; 13 μM ATP (Km); read-out: TYK2 kinase inhibitory activity (EC50)
T1 construct: JAK1 (aa 850-1154) and TYK2 (aa 871-1187) are expressed with an N-terminally fused GST-tag; GST (N); purchased Carna Biosciences, Inc; host or cells: baculovirus expression system
T1 sequence (P29597 871-1187): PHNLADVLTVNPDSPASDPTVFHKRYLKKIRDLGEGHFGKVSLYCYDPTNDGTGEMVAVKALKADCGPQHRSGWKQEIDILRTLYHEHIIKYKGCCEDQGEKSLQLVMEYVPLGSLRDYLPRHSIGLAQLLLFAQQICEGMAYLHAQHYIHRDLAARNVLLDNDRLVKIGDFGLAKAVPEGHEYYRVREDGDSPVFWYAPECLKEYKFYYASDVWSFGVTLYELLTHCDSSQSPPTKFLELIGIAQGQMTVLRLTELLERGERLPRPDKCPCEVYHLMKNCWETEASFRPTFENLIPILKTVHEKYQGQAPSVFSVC
Outline: (§1)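 Baculovirus-expressed catalytic domains (GST-JAK1 aa 850-1154, GST-TYK2 aa 871-1187, His-JAK2, His-JAK3) phosphorylate 1 μM biotin-TK peptide 20-30 min at RT in 50 mM Hepes pH 7.0 with ATP at Km: JAK1 7 μM, JAK2 4 μM, JAK3 2 μM, TYK2 13 μM; 0.75% DMSO. Stopped with EDTA, HTRF read overnight.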

JAK3 = molecular target: T2, JAK3 (Homo sapiens, UniProt P52333); experiment: JAK3 kinase assay (HTRF, inhibition of phosphorylation of a synthetic peptide); details: catalytic domain, His-tag; 2 μM ATP (Km); read-out: JAK3 kinase inhibitory activity (EC50)
T2 construct: All four purified enzymes contain only the catalytic domain; His (N); purchased Carna Biosciences, Inc; host or cells: baculovirus expression system
T2 sequence (P52333 822-1111 limits assumed): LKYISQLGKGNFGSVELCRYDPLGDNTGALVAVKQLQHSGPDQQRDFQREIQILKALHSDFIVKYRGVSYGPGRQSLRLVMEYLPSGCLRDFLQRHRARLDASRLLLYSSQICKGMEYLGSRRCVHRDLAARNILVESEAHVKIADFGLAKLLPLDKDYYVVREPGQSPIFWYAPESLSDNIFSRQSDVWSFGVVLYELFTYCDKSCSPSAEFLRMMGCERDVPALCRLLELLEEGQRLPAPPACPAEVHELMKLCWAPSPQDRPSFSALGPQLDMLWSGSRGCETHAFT
Outline: as §1

JAK2 = molecular target: T3, JAK2 (Homo sapiens, UniProt O60674); experiment: JAK2 kinase assay (HTRF, inhibition of phosphorylation of a synthetic peptide); details: catalytic domain, His-tag; 4 μM ATP (Km); read-out: JAK2 kinase inhibitory activity (EC50)
T3 construct: All four purified enzymes contain only the catalytic domain; His (N); purchased Carna Biosciences, Inc; host or cells: baculovirus expression system
T3 sequence (O60674 849-1124 limits assumed): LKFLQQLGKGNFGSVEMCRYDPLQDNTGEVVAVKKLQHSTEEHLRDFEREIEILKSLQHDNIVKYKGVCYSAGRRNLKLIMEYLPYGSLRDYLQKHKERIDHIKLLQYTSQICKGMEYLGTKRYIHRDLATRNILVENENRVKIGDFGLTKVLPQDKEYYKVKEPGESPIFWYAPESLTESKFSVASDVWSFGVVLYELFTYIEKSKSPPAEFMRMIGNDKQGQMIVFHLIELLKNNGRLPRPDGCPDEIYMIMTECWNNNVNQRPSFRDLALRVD
Outline: as §1

JAK1 = molecular target: T4, JAK1 (Homo sapiens, UniProt P23458); experiment: JAK1 kinase assay (HTRF, inhibition of phosphorylation of a synthetic peptide); details: catalytic domain aa 850-1154, GST-tag; 7 μM ATP (Km); read-out: JAK1 kinase inhibitory activity (EC50)
T4 construct: JAK1 (aa 850-1154) and TYK2 (aa 871-1187) are expressed with an N-terminally fused GST-tag; GST (N); purchased Carna Biosciences, Inc; host or cells: baculovirus expression system
T4 sequence (P23458 850-1154): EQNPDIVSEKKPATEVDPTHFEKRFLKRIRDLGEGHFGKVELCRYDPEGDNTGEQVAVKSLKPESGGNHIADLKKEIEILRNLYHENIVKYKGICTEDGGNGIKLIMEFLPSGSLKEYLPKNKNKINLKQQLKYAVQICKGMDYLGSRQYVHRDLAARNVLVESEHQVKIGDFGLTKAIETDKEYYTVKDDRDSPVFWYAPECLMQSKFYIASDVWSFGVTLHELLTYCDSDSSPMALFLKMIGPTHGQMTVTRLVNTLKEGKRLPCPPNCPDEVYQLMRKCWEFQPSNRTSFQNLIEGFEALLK
Outline: as §1

| SMILES | EC50 (TYK2) [µM] | EC50 (JAK3) [µM] | EC50 (JAK2) [µM] | EC50 (JAK1) [µM] |
| --- | --- | --- | --- | --- |
| c1ccc(CN2CCN(c3ncnc4[nH]ccc34)CC3(CC3)C2)cc1 [Example 107, 4-(5-benzyl-5,8-diazaspiro[2.6]nonan-8-yl)-7H-pyrrolo[2,3-d]pyrimidine] | > 1 | > 1 | > 1 | > 1 |
| N#Cc1ccc(CC(=O)N2CCCN(c3ncnc4[nH]ccc34)CC23CC3)cc1 [Example 59, 4-[2-oxo-2-[5-(7H-pyrrolo[2,3-d]pyrimidin-4-yl)-5,9-diazaspiro[2.6]nonan-9-yl]ethyl]benzonitrile] | > 1 | > 1 | 0.1 to 1 | 0.1 to 1 |
| N#Cc1cccc(C(=O)N2CCN(c3ncnc4[nH]ccc34)CC3(CC3)C2)c1 [Example 3, 3-[8-(7H-pyrrolo[2,3-d]pyrimidin-4-yl)-5,8-diazaspiro[2.6]nonane-5-carbonyl]benzonitrile] | > 1 | > 1 | 0.1 to 1 | 0.1 to 1 |
| CS(=O)(=O)c1ccc(CC(=O)N2CCN(c3ncnc4[nH]ccc34)CC3(CC3)C2)cc1 [Example 55, 2-(4-methylsulfonylphenyl)-1-[5-(7H-pyrrolo[2,3-d]pyrimidin-4-yl)-5,8-diazaspiro[2.6]nonan-8-yl]ethanone] | > 1 | 0.1 to 1 | < 0.1 | < 0.1 |
| CNS(=O)(=O)c1csc(C(=O)N2CCN(c3ncnc4[nH]ccc34)CC3(CC3)C2)c1 [Example 28, N-methyl-5-[5-(7H-pyrrolo[2,3-d]pyrimidin-4-yl)-5,8-diazaspiro[2.6]nonane-8-carbonyl]thiophene-3-sulfonamide] | > 1 | 0.1 to 1 | < 0.1 | 0.1 to 1 |
| N#CCOc1cccc(C(=O)N2CCN(c3ncnc4[nH]ccc34)CC3(CC3)C2)c1 [Example 14, 2-[3-[5-(7H-pyrrolo[2,3-d]pyrimidin-4-yl)-5,8-diazaspiro[2.6]nonane-8-carbonyl]phenoxy]acetonitrile] | > 1 | > 1 | 0.1 to 1 | 0.1 to 1 |
| N#CCc1ccccc1C(=O)N1CCN(c2ncnc3[nH]ccc23)CCC12CC2 [Example 48, 2-[2-[6-(7H-pyrrolo[2,3-d]pyrimidin-4-yl)-6,9-diazaspiro[2.6]nonane-9-carbonyl]phenyl]acetonitrile] | > 1 | > 1 | > 1 | > 1 |
| CCCCN1CCCN(c2ncnc3[nH]ccc23)CC12CC2 [Example 281, 4-(9-butyl-5,9-diazaspiro[2.6]nonan-5-yl)-7H-pyrrolo[2,3-d]pyrimidine] | > 1 | 0.1 to 1 | 0.1 to 1 | 0.1 to 1 |
| N#Cc1ccc(C(F)(F)C(=O)N2CCN(c3ncnc4[nH]ccc34)CC3(CC3)C2)cc1 [Example 13, 4-[1,1-difluoro-2-oxo-2-[5-(7H-pyrrolo[2,3-d]pyrimidin-4-yl)-5,8-diazaspiro[2.6]nonan-8-yl]ethyl]benzonitrile] | > 1 | > 1 | < 0.1 | 0.1 to 1 |
| Cc1ccc(S(=O)(=O)N2CC3(CC3)CN(c3ncnc4[nH]ccc34)CC2C)cc1 (stereo not shown) [Example 98, 4-[7-methyl-8-(p-tolylsulfonyl)-5,8-diazaspiro[2.6]nonan-5-yl]-7H-pyrrolo[2,3-d]pyrimidine] | > 1 | > 1 | > 1 | > 1 |
| CC1CN(c2ncnc3[nH]ccc23)CC2(CC2)CN1C(=O)Cc1ccc(C#N)cc1 (stereo not shown) [Example 286, 4-[2-[7-methyl-5-(7H-pyrrolo[2,3-d]pyrimidin-4-yl)-5,8-diazaspiro[2.6]nonan-8-yl]-2-oxo-ethyl]benzonitrile] | > 1 | > 1 | > 1 | > 1 |
| O=C(c1ccc(S(=O)(=O)NCCc2cccs2)cc1)N1CCN(c2ncnc3[nH]ccc23)CC2(CC2)C1 [Example 50, 4-[5-(7H-pyrrolo[2,3-d]pyrimidin-4-yl)-5,8-diazaspiro[2.6]nonane-8-carbonyl]-N-[2-(2-thienyl)ethyl]benzenesulfonamide] | > 1 | 0.1 to 1 | 0.1 to 1 | 0.1 to 1 |
| CCCCS(=O)(=O)N1CCN(c2ncnc3[nH]ccc23)CC2(CC2)C1 [Example 97, 4-(8-butylsulfonyl-5,8-diazaspiro[2.6]nonan-5-yl)-7H-pyrrolo[2,3-d]pyrimidine] | > 1 | > 1 | 0.1 to 1 | 0.1 to 1 |
| NS(=O)(=O)CCCC(=O)N1CCN(c2ncnc3[nH]ccc23)CC2(CC2)C1 [Example 39, 4-oxo-4-[5-(7H-pyrrolo[2,3-d]pyrimidin-4-yl)-5,8-diazaspiro[2.6]nonan-8-yl]butane-1-sulfonamide] | > 1 | < 0.1 | < 0.1 | < 0.1 |
| N#Cc1ccc(C(=O)C(=O)N2CCN(c3ncnc4[nH]ccc34)CC3(CC3)C2)cc1 [Example 100, 4-[2-oxo-2-[5-(7H-pyrrolo[2,3-d]pyrimidin-4-yl)-5,8-diazaspiro[2.6]nonan-8-yl]acetyl]benzonitrile] | > 1 | > 1 | < 0.1 | < 0.1 |
| COc1csc(C(=O)N2CCN(c3ncnc4[nH]ccc34)CC3(CC3)C2)c1 [Example 22, (4-methoxy-2-thienyl)-[5-(7H-pyrrolo[2,3-d]pyrimidin-4-yl)-5,8-diazaspiro[2.6]nonan-8-yl]methanone] | > 1 | 0.1 to 1 | 0.1 to 1 | < 0.1 |
| Cc1[nH]c(C(=O)N2CCCN(c3ncnc4[nH]ccc34)CC23CC3)cc1C#N [Example 278, 2-methyl-5-[5-(7H-pyrrolo[2,3-d]pyrimidin-4-yl)-5,9-diazaspiro[2.6]nonane-9-carbonyl]-1H-pyrrole-3-carbonitrile] | 0.1 to 1 | 0.1 to 1 | < 0.1 | < 0.1 |

Now from value to compound:

| EC50 (TYK2) [µM] | EC50 (JAK3) [µM] | EC50 (JAK2) [µM] | EC50 (JAK1) [µM] | SMILES |
| --- | --- | --- | --- | --- |
| 0.1 to 1 | 0.1 to 1 | < 0.1 | < 0.1 | N#Cc1ccc(C(=O)N2CCCN(c3ncnc4[nH]ccc34)CC23CC3)o1 [Example 258, 5-[5-(7H-pyrrolo[2,3-d]pyrimidin-4-yl)-5,9-diazaspiro[2.6]nonane-9-carbonyl]furan-2-carbonitrile] |
| 0.1 to 1 | 0.1 to 1 | < 0.1 | < 0.1 | NS(=O)(=O)c1ccc(-c2ccc(C(=O)N3CCN(c4ncnc5[nH]ccc45)CC4(CC4)C3)o2)cc1 [Example 65, 4-[5-[5-(7H-pyrrolo[2,3-d]pyrimidin-4-yl)-5,8-diazaspiro[2.6]nonane-8-carbonyl]-2-furyl]benzenesulfonamide] |
| 0.1 to 1 | 0.1 to 1 | < 0.1 | < 0.1 | O=C(Cc1ccc(F)cc1)N1CCN(c2ncnc3[nH]ccc23)CC2(CC2)C1 [Example 158, 2-(4-fluorophenyl)-1-[5-(7H-pyrrolo[2,3-d]pyrimidin-4-yl)-5,8-diazaspiro[2.6]nonan-8-yl]ethanone] |
| 0.1 to 1 | 0.1 to 1 | < 0.1 | < 0.1 | O=C(c1ccc[nH]1)N1CCCN(c2ncnc3[nH]ccc23)CC12CC2 [Example 255, [5-(7H-pyrrolo[2,3-d]pyrimidin-4-yl)-5,9-diazaspiro[2.6]nonan-9-yl]-(1H-pyrrol-2-yl)methanone] |
| 0.1 to 1 | 0.1 to 1 | < 0.1 | < 0.1 | O=C(Cc1ccc(-c2nn[nH]n2)cc1)N1CCN(c2ncnc3[nH]ccc23)CC2(CC2)C1 [Example 77, 1-[5-(7H-pyrrolo[2,3-d]pyrimidin-4-yl)-5,8-diazaspiro[2.6]nonan-8-yl]-2-[4-(2H-tetrazol-5-yl)phenyl]ethanone] |
| < 0.1 | < 0.1 | < 0.1 | < 0.1 | N#Cc1c[nH]c(C(=O)N2CCCN(c3ncnc4[nH]ccc34)CC23CC3)c1 [Example 209, 5-[5-(7H-pyrrolo[2,3-d]pyrimidin-4-yl)-5,9-diazaspiro[2.6]nonane-9-carbonyl]-1H-pyrrole-3-carbonitrile] |
| 0.1 to 1 | 0.1 to 1 | < 0.1 | < 0.1 | Cc1cc(CC(=O)N2CCN(c3ncnc4[nH]ccc34)CC3(CC3)C2)no1 [Example 87, 2-(5-methylisoxazol-3-yl)-1-[5-(7H-pyrrolo[2,3-d]pyrimidin-4-yl)-5,8-diazaspiro[2.6]nonan-8-yl]ethanone] |
| 0.1 to 1 | 0.1 to 1 | < 0.1 | < 0.1 | O=C(C1CCCCC1)N1CCCN(c2ncnc3[nH]ccc23)CC12CC2 [Example 93, cyclohexyl-[5-(7H-pyrrolo[2,3-d]pyrimidin-4-yl)-5,9-diazaspiro[2.6]nonan-9-yl]methanone] |
